Active and inactive are the calls of the source. The calls are words filed in the database; no cut-off is given here.
What was measured:
Mus musculus [1] = assay: Antiarthritic activity against anticollagen antibody-induced arthritis BALB/c mouse model assessed as reduction in swelling of digits administered orally twice a day followed by LPS stimulation after 6 hrs measured until day 12; type: functional, organism-based; details: dose 2-10 mg/kg, time 12.0 day
[2] = target: T1, Tumor necrosis factor receptor superfamily member 1A (Homo sapiens) (UniProt P19438); assay: Binding affinity to TNFR1 (unknown origin) assessed as sedimentation coefficient (S) value at 25 uM in presence of human TNFalpha by ultracentrifugation analysis (reference value: 2.2)
T1 sequence (whole entry): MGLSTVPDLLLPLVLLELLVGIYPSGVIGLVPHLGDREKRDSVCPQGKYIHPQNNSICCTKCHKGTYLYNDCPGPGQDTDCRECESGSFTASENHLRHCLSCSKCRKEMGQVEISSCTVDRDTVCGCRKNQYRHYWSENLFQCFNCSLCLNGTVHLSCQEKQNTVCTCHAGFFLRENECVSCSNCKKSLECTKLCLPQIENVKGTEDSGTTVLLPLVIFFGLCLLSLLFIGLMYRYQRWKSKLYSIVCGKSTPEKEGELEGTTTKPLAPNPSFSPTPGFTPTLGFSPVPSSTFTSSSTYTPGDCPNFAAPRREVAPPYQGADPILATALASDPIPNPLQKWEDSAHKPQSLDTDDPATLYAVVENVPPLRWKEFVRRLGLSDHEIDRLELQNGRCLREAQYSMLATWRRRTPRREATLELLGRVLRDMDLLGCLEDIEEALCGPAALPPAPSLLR

[3] = Half-life in mouse at 0.5 mg/kg, iv; type: ADME, organism-based; details: in vivo
[4] = Metabolic stability in human liver microsomes assessed as half-life; type: ADME, Microsome
CD40 ligand = target: T2, CD40 ligand (Homo sapiens, UniProt P29965); assay: Inhibition of CD40L (unknown origin)
T2 sequence (P29965 whole entry): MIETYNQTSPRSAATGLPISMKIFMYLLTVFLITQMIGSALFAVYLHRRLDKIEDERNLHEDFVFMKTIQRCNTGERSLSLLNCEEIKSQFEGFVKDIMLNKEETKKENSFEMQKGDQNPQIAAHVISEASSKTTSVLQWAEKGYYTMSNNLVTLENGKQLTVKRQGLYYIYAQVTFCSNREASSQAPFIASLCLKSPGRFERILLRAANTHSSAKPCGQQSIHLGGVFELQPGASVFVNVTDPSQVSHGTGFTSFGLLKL

Cytochrome P450 3A4 = Cytochrome P450 3A4 (Homo sapiens, UniProt P08684); assay: Inhibition of recombinant CYP3A4 (unknown origin) in presence of BFC as substrate; type: ADME
Sequence of Cytochrome P450 3A4 (P08684 whole entry): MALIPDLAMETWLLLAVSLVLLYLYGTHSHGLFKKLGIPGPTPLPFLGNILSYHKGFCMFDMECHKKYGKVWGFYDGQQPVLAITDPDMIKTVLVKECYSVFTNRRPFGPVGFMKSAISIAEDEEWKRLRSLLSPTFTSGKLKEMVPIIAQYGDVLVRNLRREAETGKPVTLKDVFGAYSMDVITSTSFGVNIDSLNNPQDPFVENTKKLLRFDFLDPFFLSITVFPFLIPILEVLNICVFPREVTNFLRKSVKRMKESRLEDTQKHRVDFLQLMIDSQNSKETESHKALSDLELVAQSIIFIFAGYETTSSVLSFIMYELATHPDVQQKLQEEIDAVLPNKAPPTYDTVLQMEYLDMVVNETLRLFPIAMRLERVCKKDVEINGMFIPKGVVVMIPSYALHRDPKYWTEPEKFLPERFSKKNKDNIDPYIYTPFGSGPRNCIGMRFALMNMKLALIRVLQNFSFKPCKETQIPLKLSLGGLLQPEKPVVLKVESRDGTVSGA

[5] = Metabolic stability in rat liver microsomes assessed as half-life; type: ADME, Microsome
[6] = Selectivity ratio of drug exposure in anticollagen antibody-induced arthritis BALB/c mouse model at 2 mg/kg, po BID for 12 days to IC50 for inhibition of human TNFalpha expressed in HEK-Blue-CD40L cells assessed as inhibition of NFkappaB activation by quanti-blue based SEAP assay
[7] = target: T1, Tumor necrosis factor receptor superfamily member 1A (Homo sapiens); assay: Binding affinity to TNFR1 (unknown origin) assessed as apparent molecular weight of protein at 25 uM by ultracentrifugation analysis (reference value: 27 kDa)
[8] = Metabolic stability in mouse liver microsomes assessed as half-life; type: ADME, Microsome
[9] = Oral bioavailability in mouse at 2 mg/kg; type: ADME, organism-based; details: in vivo
Mus musculus [10] = assay: Antiinflammatory activity in TNFalpha-induced C57BL/6J mouse assessed as inhibition of serum IL-6 levels at 5 to 25 mg/kg, po pretreated with compound prior to 1 hr of TNFalpha challenge and measured 2 hrs post TBFalpha challenge by ELISA; type: functional, organism-based; details: dose 5-25 mg/kg, time 3.0 hrs
Tumor necrosis factor [11] = target: T3, Tumor necrosis factor (Homo sapiens, UniProt P01375); assay: Displacement of fluorescent labeled probe from human recombinant His-tagged TNFalpha (77 to 233 residues) expressed in Escherichia coli preincubated for 1 hr followed by fluorogenic probe addition and measured after 3 hrs by HTRF assay
T3 sequence (P01375 whole entry, the tested form may be a part): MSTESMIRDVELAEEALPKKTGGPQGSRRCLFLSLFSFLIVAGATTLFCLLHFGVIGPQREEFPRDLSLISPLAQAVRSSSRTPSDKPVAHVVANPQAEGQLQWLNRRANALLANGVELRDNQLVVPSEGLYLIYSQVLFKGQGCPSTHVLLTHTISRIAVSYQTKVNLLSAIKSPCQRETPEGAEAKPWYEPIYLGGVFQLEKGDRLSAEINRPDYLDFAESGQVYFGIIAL

Tumor necrosis factor [12] = target: T3, Tumor necrosis factor; assay: Inhibition of exogenous human TNFalpha in HEK-Blue-CD40L cells assessed as reduction in TNF-alpha-induced NFkappaB activation incubated for 18 hrs by quanti-blue based SEAP assay; type: cell-based
Mus musculus [13] = assay: Antiarthritic activity against anticollagen antibody-induced arthritis BALB/c mouse model assessed as reduction in LPS-induced CXCL10 levels administered orally twice daily followed by LPS stimulation after 6 hrs measured on day 12 by RT-PCR analysis; type: functional, organism-based; details: dose 2-10 mg/kg, time 12.0 day
[14] = Total AUC in mouse at 0.5 mg/kg, iv; type: ADME, organism-based; design: route intravenous, time AUCmax, dose 0.5 mg/kg; details: in vivo
Cytochrome P450 2C8 = target: T4, Cytochrome P450 2C8 (Homo sapiens, UniProt P10632); assay: Inhibition of recombinant CYP2C8 (unknown origin); type: ADME
T4 sequence (P10632 whole entry): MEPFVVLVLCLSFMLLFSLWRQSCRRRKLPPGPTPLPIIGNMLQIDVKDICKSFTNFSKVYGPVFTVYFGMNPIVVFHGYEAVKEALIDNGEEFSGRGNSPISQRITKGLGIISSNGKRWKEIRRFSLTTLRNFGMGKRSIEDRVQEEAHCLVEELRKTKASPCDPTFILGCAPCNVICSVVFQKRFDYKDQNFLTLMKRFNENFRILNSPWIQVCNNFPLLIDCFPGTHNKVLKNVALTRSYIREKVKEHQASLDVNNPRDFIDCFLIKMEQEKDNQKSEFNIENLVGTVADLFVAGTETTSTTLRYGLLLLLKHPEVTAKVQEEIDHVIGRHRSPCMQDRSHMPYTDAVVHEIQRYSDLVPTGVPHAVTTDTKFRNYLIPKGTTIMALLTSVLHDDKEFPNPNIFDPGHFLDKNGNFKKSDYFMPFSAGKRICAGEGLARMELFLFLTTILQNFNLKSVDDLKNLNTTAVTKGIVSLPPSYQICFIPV

[15] = Metabolic stability in human liver microsomes assessed as parent compound remaining after 10 mins; type: ADME, Microsome; details: read-out: Stabilty
Mus musculus [16] = assay: Antiarthritic activity against anticollagen antibody-induced arthritis BALB/c mouse model assessed as reduction in LPS-induced IL-6 production administered orally twice daily followed by LPS stimulation after 6 hrs measured on day 12 by RT-PCR analysis; type: functional, organism-based; details: dose 2-10 mg/kg, time 12.0 day
[17] = target: T1, Tumor necrosis factor receptor superfamily member 1A (Homo sapiens); assay: Binding affinity to TNFR1 (unknown origin) assessed as apparent molecular weight of protein at 25 uM in presence of human TNFalpha by ultracentrifugation analysis (reference value: 27 kDa)
Mus musculus [18] = assay: Antiarthritic activity against anticollagen antibody-induced arthritis BALB/c mouse model assessed as reduction in LPS-induced CXCL12 levels administered orally twice daily followed by LPS stimulation after 6 hrs measured on day 12 by RT-PCR analysis; type: functional, organism-based; details: dose 2-10 mg/kg, time 12.0 day
[19] = Protein binding in mouse assessed as unbound fraction; type: ADME
Mus musculus [20] = assay: Antiarthritic activity against anticollagen antibody-induced arthritis BALB/c mouse model assessed as reduction in LPS-induced MCP-1 levels administered orally twice daily followed by LPS stimulation after 6 hrs measured on day 12 by RT-PCR analysis; type: functional, organism-based; details: dose 2-10 mg/kg, time 12.0 day
Mus musculus [21] = assay: Antiarthritic activity against anticollagen antibody-induced arthritis BALB/c mouse model assessed as reduction in LPS-induced IL-1beta production administered orally twice daily followed by LPS stimulation after 6 hrs measured on day 12 by RT-PCR analysis; type: functional, organism-based; details: dose 2-10 mg/kg, time 12.0 day

half-life [3]: 6.2 h | half-life [4]: > 2 h | IC50 (CD40 ligand): > 10000 nM | IC50 (Cytochrome P450 3A4): > 20000 nM | half-life [5]: 1.15 h | half-life [8]: 1.3 h | bioavailability [9]: 58% | AUC [14]: 2.5 µM·h | IC50 (Cytochrome P450 2C8): > 6700 nM | remaining at 10 min [15]: 95% | Fu [19]: 0.6%
Compound: Cc1nc2cc(F)c(-c3cnc(C(C)(C)O)nc3)nc2c(N[C@H](C)c2cc(C#N)ccc2F)c1Cl
Activity (Mus musculus [1]): Dose-dependent effect | Activity index [2]: 2.2 | Ratio [6]: 1 | Activity [7]: 27 kDa | Activity (Mus musculus [10]): Active | IC50 (Tumor necrosis factor [11]): 25 nM | IC50 (Tumor necrosis factor [12]): 27 nM | Activity (Mus musculus [13]): Dose-dependent effect | Activity (Mus musculus [16]): Dose-dependent effect | Activity [17]: 28 kDa | Activity (Mus musculus [18]): Dose-dependent effect | Activity (Mus musculus [20]): Dose-dependent effect | Activity (Mus musculus [21]): Dose-dependent effect
